The source of these data is patent US20240175069A1, “BIOSYSTEM FOR PESTICIDE DETECTION” (priority 2022, published 2024).

The target of data set [1] is T1, CYP2B11 (Canis lupus familiaris, UniProt P24460).
T1 sequence (P24460 1-494): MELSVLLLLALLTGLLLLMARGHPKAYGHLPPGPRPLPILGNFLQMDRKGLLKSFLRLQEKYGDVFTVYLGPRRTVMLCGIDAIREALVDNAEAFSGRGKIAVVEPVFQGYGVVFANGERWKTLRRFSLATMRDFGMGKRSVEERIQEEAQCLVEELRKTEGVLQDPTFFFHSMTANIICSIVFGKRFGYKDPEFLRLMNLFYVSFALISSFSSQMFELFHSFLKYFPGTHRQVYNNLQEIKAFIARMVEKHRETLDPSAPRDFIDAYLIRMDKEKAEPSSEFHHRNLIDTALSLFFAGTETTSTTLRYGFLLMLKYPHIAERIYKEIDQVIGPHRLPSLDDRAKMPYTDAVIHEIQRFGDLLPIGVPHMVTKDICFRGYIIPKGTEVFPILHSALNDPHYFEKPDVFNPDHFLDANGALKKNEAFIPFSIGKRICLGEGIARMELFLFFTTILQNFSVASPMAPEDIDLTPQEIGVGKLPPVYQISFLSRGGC
As to the kind of experiment: Pesticides screening using CYP2B11 inhibition assay (BOMCC fluorescence, Example 4). The note with it: 400 μg/L pesticide; 5 pmol/mL CYP2B11; 3 μM BOMCC. Here is the method: This assay was performed in a 96-well plate by adding 50 μL of chemical standard of pesticides in duplicate, previously prepared in assay buffer with 5% acetonitrile. Enzyme mixture consisted of 5 pmol/mL CYP2B11 (Cypex Limited) in the assay buffer: 75 mM potassium phosphate supplemented with 5 mM MgCl2, pH=8.0, containing 333 mM Glucose-6-phosphate and 30 U/mL Glucose-6-phosphate dehydrogenase. After preparation, 50 μL of enzyme mixture were added to each plate and incubated for 10 minutes at 37° C. After incubation, 10 μL of a substrate mixture containing 30 μM NADP^+ and 3 μM BOMCC in the phosphate buffer was added to the wells. The plate was incubated for 60 minutes at 37° C., and the fluorescence was monitored using 410/460 nm as excitation and emission wavelengths, respectively. A blank sample containing buffer solution was measured in same conditions and used to calculate the inhibition of the enzyme activity that was associated with the presence of pesticides concentration.

For data set [2], the target named is T2, CYP2B10 (Mus musculus, UniProt P12791).
T2 sequence (P12791 1-491 isoform P12791-2 L55F/V178I/R251K/K253R/N280H/A281T/V298A/H308R/T321A/S349T/L376M/Q412H/S444N): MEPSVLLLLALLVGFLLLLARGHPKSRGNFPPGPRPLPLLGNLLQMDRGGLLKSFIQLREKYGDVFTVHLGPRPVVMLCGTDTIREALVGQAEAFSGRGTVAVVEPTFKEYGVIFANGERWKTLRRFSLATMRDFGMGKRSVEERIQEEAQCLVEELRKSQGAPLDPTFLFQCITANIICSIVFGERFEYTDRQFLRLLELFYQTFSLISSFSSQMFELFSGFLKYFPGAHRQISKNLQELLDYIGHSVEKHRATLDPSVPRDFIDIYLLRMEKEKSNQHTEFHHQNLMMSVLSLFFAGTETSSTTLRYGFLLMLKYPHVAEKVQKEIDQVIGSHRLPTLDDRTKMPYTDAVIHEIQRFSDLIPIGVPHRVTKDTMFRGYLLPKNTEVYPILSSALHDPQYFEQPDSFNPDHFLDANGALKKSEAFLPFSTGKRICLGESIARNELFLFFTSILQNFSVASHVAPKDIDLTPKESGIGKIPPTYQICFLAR
Description: CYP2B10 assay on extracts of spiked mushrooms, validation (Example 7). The note with it: mushroom spiked at 0.01 mg/kg, extracted; 15 pmol/mL CYP2B10; 10 μM MOBFC; triplicates over seven days.
Description: The bioassay was performed in 500 μL tubes and in triplicate. 50 μL of extract was added to the tubes. Enzyme mixture was prepared following the protocols provided by the manufacturer (Cypex Limited) and consisted of 15 pmol/ml of CYP2B10 Bactosomes in the assay buffer: 75 mM potassium phosphate supplemented with 5 mM MgCl2, pH=8.0, containing 333 mM Glucose-6-phosphate and 30 U/mL Glucose-6-phosphate dehydrogenase. After the preparation, 50 μL of enzyme mixture were added to each tube. After reach room temperature 10 μL of substrate mixture (10 μM MOBFC and 30 μM NADP^+ diluted in potassium phosphate buffer 50 mM) was added to each tube. The tubes were incubated 60 minutes at 37° C. and when time passed, fluorescence signal was measured with a fluorometric reader, 370 nm and 520 nm were the excitation and emission wavelengths, respectively. A blank sample, buffer solution, was measured at the same time and the reduction of the signal, inhibition of enzyme activity, was calculated and associated with the presence of pesticide molecules.
The validation was carried out during seven days, comparing the signal obtained for triplicate samples of blank and doped mushroom.

The target in data set [3] is T2, CYP2B10. As to the kind of experiment: Pesticides screening using CYP2B10 inhibition assay (MOBFC fluorescence, Example 1). The note with it: 15 pmol/mL CYP2B10, 10 μM MOBFC, 10% acetonitrile standard; for I (%) at 200 μg/L: 200 μg/L pesticide; for I (%) at 400 μg/L: 400 μg/L pesticide. The data set is classed as biochemical. More on the design: purchased Cypex Limited; bacterial membranes, E. coli by own knowledge. On the procedure:
An inhibition assay was performed using the enzyme CYP2B10 by contacting it to 200 μg/L and 400 μg/L of chlorpyrifos-ethyl, chlorpyrifos-methyl, prochloraz, diazinon and dicofol.

In data set [4] the target is T2, CYP2B10. Description: CYP2B10 inhibition assay with MOBFC/MOFC reporter substrate mixes (Example 3). The data set is classed as biochemical. More on the design: purchased Cypex Limited; bacterial membranes, E. coli by own knowledge. The note with it: 400 μg/L dicofol. Here is the method: The enzyme CYP2B10 was exposed to 400 μg/L of dicofol pesticide, and the inhibition percentage was registered when reporter substrate concentration and composition was changed.

For data set [5], the target named is T3, Dog CYP2B11 (Canis lupus familiaris, UniProt P24460).
T3 construct: purchased Cypex Limited; host or cells: bactosomes (bacterial membranes; E. coli by own knowledge)
T3 sequence (P24460 1-494): T1 sequence (P24460 1-494)
Description: Metrafenone inhibition assay on CYP2B11 (Example 5). The format is biochemical. The note with it: 500 μg/L metrafenone; CYP2B11 5 pmol/mL; BOMCC 3 μM.
Description: (§1) This assay was performed in a 96-well plate by adding 50 μL of 500 μg/L of metrafenone chemical standard to wells in duplicate, previously prepared in assay buffer with 5% acetonitrile. CYP2B11 enzyme mixture consisted of 5 pmol/mL Dog CYP2B11 bactosomes (Cypex Limited) in the assay buffer: 75 mM potassium phosphate supplemented with 5 mM MgCl2, pH=8.0, containing 333 mM Glucose-6-phosphate and 30 U/mL Glucose-6-phosphate dehydrogenase. CYP2B6 enzyme mixture consisted of 2.5 pmol/ml of Vivid® Human CYP2B6 baculosomes (Thermofisher Scientific) in the assay buffer: 75 mM potassium phosphate, pH=8.0, containing 333 mM Glucose-6-phosphate and 30 U/mL Glucose-6-phosphate dehydrogenase.
(§2) After preparation, 50 μL of each enzyme mixture were added to each plate and incubated for 10 minutes at 37° C. After incubation, 10 μL of a substrate mixture containing 30 μM NADP^+ and 3 μM BOMCC in the phosphate buffer was added to the wells. The plate was incubated for 60 minutes at 37° C., and the fluorescence was monitored using 410/460 nm as excitation and emission wavelengths, respectively. A blank sample containing buffer solution was measured in same conditions and used to calculate the inhibition percentage of the activity of the enzymes in presence of the pesticide metrafenone.

Data set [6] concerns the target T4, Human CYP2B6 (Homo sapiens, UniProt P20813).
T4 construct: purchased Thermofisher Scientific; host or cells: baculosomes (microsomes of baculovirus-infected insect cells, by own knowledge)
T4 sequence (P20813 1-491): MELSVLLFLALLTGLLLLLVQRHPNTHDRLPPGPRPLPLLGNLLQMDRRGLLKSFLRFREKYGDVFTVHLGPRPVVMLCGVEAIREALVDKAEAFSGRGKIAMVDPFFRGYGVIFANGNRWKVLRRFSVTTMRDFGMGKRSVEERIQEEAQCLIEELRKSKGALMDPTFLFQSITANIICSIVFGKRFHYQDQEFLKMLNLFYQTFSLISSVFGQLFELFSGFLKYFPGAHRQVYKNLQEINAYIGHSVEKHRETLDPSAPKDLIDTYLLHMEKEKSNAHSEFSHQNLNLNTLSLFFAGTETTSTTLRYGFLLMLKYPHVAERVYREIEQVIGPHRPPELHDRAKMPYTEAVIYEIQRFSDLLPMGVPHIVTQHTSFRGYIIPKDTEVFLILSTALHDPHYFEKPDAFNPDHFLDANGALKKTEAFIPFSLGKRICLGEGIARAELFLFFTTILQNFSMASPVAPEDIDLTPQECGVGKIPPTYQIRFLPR
Description: Metrafenone inhibition assay on human CYP2B6 (Example 5). The data set is classed as biochemical. The note with it: 500 μg/L metrafenone; CYP2B6 2.5 pmol/mL; BOMCC 3 μM.
Description: as §1, §2

Data set [7] addresses T1, CYP2B11. Description: Effect of dimethoate in CYP2B11 assay (BOMCC fluorescence, Example 2). The data set is classed as biochemical. Details: purchased Cypex Limited. The note with it: dog, CYP2B11 enzyme (Cypex Limited), pH 8, probe BOMCC (3 μM in substrate mixture); 2 mg/L dimethoate; 10 pmol/mL CYP2B11; 3 μM BOMCC. The source says:
Considering the inhibition percentage determined, it is possible to confirm that CYP2B11 enzyme is susceptible to be inhibited by dimethoate pesticide.

For the compound `Clc1ccc(C(c2ccc(Cl)cc2)C(Cl)(Cl)Cl)cc1` [DDT], the “I(%)” value in data set [1] turned out to be 70.7%.

For `CC(C)NC(=O)N1CC(=O)N(c2cc(Cl)cc(Cl)c2)C1=O` [Iprodione], the “I(%)” value in data set [1] worked out at 15.9%.

For the compound `CCCN(CCOc1c(Cl)cc(Cl)cc1Cl)C(=O)n1ccnc1` [Prochloraz], the “Average I (%)” value in data set [2] amounted to 54.2%. For the same compound, in data set [3], the “I (%) at 200 μg/L” value came out at 60.3% and the “I (%) at 400 μg/L” value was 72.0%. In data set [1], the “I(%)” value was 94.6%.

Consider `CCOP(=S)(OCC)Oc1nc(Cl)c(Cl)cc1Cl` [Chlorpyrifos-ethyl], for which, in data set [3], the “I (%) at 200 μg/L” value was determined as 26.8% and the “I (%) at 400 μg/L” value was 46.8%. Also, the “I(%)” value in data set [1] is 94.2%.

Consider `CCCC(Cn1cncn1)c1ccc(Cl)cc1Cl` (stereo not drawn) [Penconazole], for which the “I(%)” value in data set [1] is reported as 87.8%.

As to `OC(c1ccc(Cl)cc1)(c1ccc(Cl)cc1)C(Cl)(Cl)Cl` [Dicofol], the “I (%) at 200 μg/L” value in data set [3] stood at 19.0%. Also, the “I (%) at 400 μg/L” value in data set [3] is listed as 30.6%. Also, the “I(%)” value in data set [1] was 79.0%; in data set [4] (MOBFC 0.0 μM, MOFC 10.0 μM), 72.9%; in data set [4] (MOBFC 2.0 μM, MOFC 8.0 μM) it was 50.6%; in data set [4] (MOBFC 3.3 μM, MOFC 6.6 μM), 37.4%; in data set [4] (MOBFC 5.0 μM, MOFC 5.0 μM) it was 24.3%; in data set [4] (MOBFC 10.0 μM, MOFC 0.0 μM), 16.8%.

As for `N#Cc1c(Cl)c(Cl)c(Cl)c(C#N)c1Cl` [Chlorothalonil], the “I(%)” value in data set [1] came to 62.3%.

On to `COc1cc(C)c(C(=O)c2c(OC)ccc(Br)c2C)c(OC)c1OC` [metrafenone], for which the “I(%)” value in data set [5] is listed as 35.2%; in data set [6] it was 0.0%.

As for `COP(=S)(OC)Oc1nc(Cl)c(Cl)cc1Cl` [Chlorpyrifos-methyl], the “Average I (%)” value in data set [2] is 46.8%. In addition, in data set [3], the “I (%) at 200 μg/L” value was determined as 49.5% and the “I (%) at 400 μg/L” value was found to be 77.9%. For the same compound, the “I(%)” value in data set [1] came to 96.0%.

For `Fc1ccc(Oc2ccnc3cc(Cl)cc(Cl)c23)cc1` [Quinoxyfen], the “I(%)” value in data set [1] was 18.1%.

As to `CC1(C)C(C=C(Cl)Cl)C1C(=O)OC(C#N)c1cccc(Oc2ccccc2)c1` (stereo not drawn) [Cypermethrin], in data set [1], the “I(%)” value is on record as 17.5%.

For the compound `CCOP(=S)(OCC)Oc1cc(C)nc(C(C)C)n1` [Diazinon], in data set [1], the “I(%)” value was found to be 84.1%.

`CNC(=O)CSP(=S)(OC)OC` [dimethoate]: the inhibition at 60 min, 2 mg/L in data set [7] came out at 56.8%.

On to `CC12CC1(C)C(=O)N(c1cc(Cl)cc(Cl)c1)C2=O` (stereo not drawn) [Procymidone], for which, in data set [1], the “I(%)” value is 24.5%.
